Patent publication US20230321188A1, “AUTOPHAGY INDUCING PEPTIDES” (TRANSLATIONAL HEALTH SCIENCE AND TECHNOLOGY INSTITUTE, priority 2020, published 2023)
Where a SMILES comes first, the peptide text is derived from it.

How the values were obtained:
mTOR = mTOR independent activation of autophagy: western blot of S6Kinase / 4E-BP1 phosphorylation; format: cell-based; conditions: Huh7 cells, peptides 10 μM, 6 h
Method: FIG. 5 depicts mTOR independent activation of autophagy Huh7 cells were treated with peptides (10 μM) and torin1 (1 μM) for 6 h and lysed in lysis buffer (1mM EDTA, 20 mM Tris-HCl pH 7.4, 250 mM NaCl, PMSF, and PI). Western blot was performed by GAPDH (internal control), […] and S6K1 antibodies. The peptides were tested for inhibition of mTOR by testing for phosphorylation of enzyme p70S6K. The phosphorylation of p-p70S6K at threonine 389 has been used as a hallmark of activation by mTOR.
Huh7/HeLa cells were treated with peptides 10 μM for 6 h and protein lysates were analysed by western blotting using pS6Kinase, S6Kinase, p-4E-BP1, 4E-BP1 and GAPDH antibodies. Torin 1 was used as positive control.

[1] = test system: S. typhimurium (strain Xen33); assay: In vivo S. typhimurium (Xen33) infection and disease progression in FVB mice
Method: For the in vivo studies, mouse S. typhimurium (strain Xen33) infection carried out as per the previous protocol of Griffin et al., 2011. In brief, mice were pre-treated with streptomycin. Water and food were withdrawn before 4hours of infection. For the experiments, 6-8 weeks of FVB male mice were utilized in a group of 5. Mice related experiments and its maintenance were carried out in a small animal facility at THSTI, Faridabad. […] FVB mice were infected orally with Xen-33(S. typhimurium) and its bioluminescence was measured by in vivo imaging with IVIS Lumina (Perkin Elmer) and quantified with living image software version 4.2. Bioluminescent levels were measured as radiance (p/sec/cm^2/sr), by using a pseudo scale for measurement in which blue represents low intensity and red represents high intensity. Posts in vivo imaging, the bacterial burden in faecal sample were also measured.
Mice having Salmonella typhimurium infection or non-infected were sacrificed and their intestine was removed for immunohistochemistry studies. Intestines were washed with PBS and fixed in 10% formaldehyde. Thereafter, fine-sectioned on a microtome. Tissue blocks were prepared on Paraffin wax and then hematoxylin and eosin (HE) staining was carried out. The finally stained sections were then observed, and images were acquired by using the Ti Eclipse Nikon microscope. The scoring was done by random scoring by different individuals.
In vivo effect of p7T treatment on S. typhimurium infection and disease progression in FVB mice. Recovery of chronically S. typhimurium infected FVB mice was studied in the presence of P7T&P13T. […] Colon samples were further examined for histological changes. […] The stool was collected, plated on SS agar to determine S. typhimurium colony formation.
(c) In vivo imaging and intensity quantitation of mice infected with S. typhimurium strain (Xen33) expressing luciferase on the 8th day (n=5 mice per group). […] (i) Immunohistochemistry images (40×) showing expression of HIF-1α and its quantification in the colon (n=5). […] Data representative of triplicates and repeated three times each individual experiments*P<0.05, **P <0.01, ***P<0.001, **** P<0.0001, ns, non-significant. (Student's t-test and one-way ANOVA).

S. typhimurium = format: cell-based; conditions: 24 h
GAPR-1 [2] = target: T1, GAPR-1 (UniProt Q9H4G4 2-154, limits assumed); assay: MicroScale Thermophoresis (MST), purified Gapr-1
T1 construct: Purified protein used in MST; also called purified Gapr-1
T1 sequence (looked up): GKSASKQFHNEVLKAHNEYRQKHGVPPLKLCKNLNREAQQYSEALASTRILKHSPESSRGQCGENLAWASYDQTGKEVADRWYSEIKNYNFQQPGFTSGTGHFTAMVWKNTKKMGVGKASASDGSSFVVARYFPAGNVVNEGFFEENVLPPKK

GAPR-1 [3] = target: T1, GAPR-1; assay: MicroScale Thermophoresis (MST), peptide titrated on purified Gapr-1; fraction bound against peptide conc. (M) [3A]
[4] = FVB mice infected with S. typhimurium

Molecule: CC[C@H](C)[C@H](NC(=O)[C@@H](NC(=O)CNC(=O)[C@@H](N)Cc1ccccc1)[C@@H](C)O)C(=O)N[C@@H](CC(N)=O)C(=O)N[C@@H](CC(N)=O)C(=O)N[C@@H](Cc1ccccc1)C(=O)N[C@@H](CCCNC(=N)N)C(=O)N[C@@H](CC(C)C)C(=O)O [P7T] (H-FGTINNFRL-OH)
- interference with phosphorylation of p70S6K and mTOR activity (mTOR): did not interfere with the phosphorylation of p70S6K and mTOR activity
- bacterial burden in faecal sample / stool ([1]; FVB mice infected orally with Xen-33, stool plated on SS agar): significant decrease in bacterial burden
- length of the colon [1, 4]: significantly reduced in untreated mice compare to P7T
- splenomegaly [1, 4]: difference in splenomegaly was not observed
- histopathology score ([1]; intestine/colon H&E staining, FVB mice infected with S. typhimurium): significantly less

Molecule: CC(C)C[C@H](NC(=O)[C@H](Cc1ccc(O)cc1)NC(=O)[C@H](CO)NC(=O)[C@H](Cc1c[nH]cn1)NC(=O)[C@H](CC(N)=O)NC(=O)CNC(=O)[C@H](Cc1ccc(O)cc1)NC(=O)[C@@H]1CCCN1C(=O)[C@@H](NC(=O)[C@H](CC(C)C)NC(=O)[C@@H](N)CCCNC(=N)N)C(C)C)C(=O)N[C@@H](CCC(=O)O)C(=O)N[C@@H](CO)C(=O)O [P13T] (H-RLVPYGNHSYLES-OH)
- interference with phosphorylation of p70S6K and mTOR activity (mTOR): did not interfere with the phosphorylation of p70S6K and mTOR activity

Molecule: NC(=O)C[C@H](NC(=O)CNC(=O)[C@H](Cc1ccc(O)cc1)NC(=O)[C@@H]1CCCN1)C(=O)N[C@@H](Cc1c[nH]cn1)C(=O)N[C@@H](CO)C(=O)N[C@@H](Cc1ccc(O)cc1)C(=O)O [P3T] (H-PYGNHSY-OH; N-terminus and C-terminus assumed)
- inhibition of S. typhimurium (S. typhimurium): 49.5%

Molecule: CC(C)C[C@H](NC(=O)CNC(=O)CNC(=O)[C@H](CO)NC(=O)[C@H](CS)NC(=O)[C@H](Cc1ccc(O)cc1)NC(=O)[C@@H](N)CC(C)C)C(=O)N[C@@H](CCCNC(=N)N)C(=O)N[C@@H](Cc1ccccc1)C(=O)N[C@@H](Cc1ccccc1)C(=O)N[C@@H](Cc1c[nH]c2ccccc12)C(=O)N[C@@H](CC(=O)O)C(=O)O [P8T] (H-LYCSGGLRFFWD-OH)
- inhibition of S. typhimurium (S. typhimurium): 62.16%

Molecule: CC(C)C[C@H](NC(=O)[C@H](C)NC(=O)[C@H](Cc1c[nH]cn1)NC(=O)[C@H](CC(C)C)NC(=O)[C@H](CC(C)C)NC(=O)[C@H](CC(C)C)NC(=O)[C@@H](NC(=O)[C@@H](NC(=O)[C@@H](N)CCC(N)=O)[C@@H](C)O)C(C)C)C(=O)O [P9T] (H-QTVLLLHAL-OH)
- interference with phosphorylation of p70S6K and mTOR activity (mTOR): did not interfere with the phosphorylation of p70S6K and mTOR activity

B1: P7T (peptide)
peptide: FGTINNFRL
notes: also called peptide P7T
- Kd (GAPR-1 [2]): 130 nM

B2: P8T (peptide)
peptide: LYCSGGLRFFWD
notes: also called peptide P8T
- Kd (GAPR-1 [2]): 120 nM

B3: P9T (peptide)
peptide: QTVLLLHAL
notes: also called peptide P9T
- Kd (GAPR-1 [2]): 1560 nM

B4: P3T (peptide)
peptide: PYGNHSY
notes: also called peptide P3T
- Kd (GAPR-1 [3]): 210 nM

B5: P13T (peptide)
peptide: RLVPYGNHSYLES
notes: also called peptide P13T
- Kd (GAPR-1 [2]): 70 nM
